Test results from patent US20170042883A1, “Methods for Detecting and Treating Rhinovirus Infection” (The Procter & Gamble Company, priority 2011, published 2017).

Test system: rhinovirus infection-induced inflammatory markers (IL-6, IP-10, and RANTES) in BEAS-2B
Assay: rhinovirus infection-induced inflammatory markers in RV-16 infected BEAS-2B cells
Format: cell-based, human
Conditions: for anti-inflammatory effects in the rhinovirus infection mediated inflammation model: result in words
Method: The effect of various identified compounds on rhinovirus infection-induced inflammatory markers (IL-6, IP-10, and RANTES) in the human bronchial epithelia cell line, BEAS-2B, was evaluated. Kaempferol, luteolin, quercetin, scutellarein, all-transretinoic acid, 3-hydroxyflavone, fustin, 3-methylquercetin, fisetin, apigenin, oxymetazoline HCl, chrysin, naringenin, pyrrolidinedithiocarbamate ammonium, 7-hydroxyflavone, myricetin, diosmetin, 4′,7-dihydroxyflavone, or eriodictyol was added to cell culture media at various doses at the time of RV-16 infection of BEAS-2B cells. IL-6, IP-10 and RANTES protein levels were measured three days post-infection. Cytotoxicity of the compounds was determined by the uptake of vital dye Rhinovirus infected BEAS-2B cells not exposed to the compounds served as a positive control, achieving maximum cytokine production. BEAS-2B cells not exposed to rhinovirus or the compounds served as a negative control. […] The study was repeated for a subset of compounds, and ibuprofen (20 µM) was added to the cell media with the compounds at the time of infection. IL-6, IP-10 and RANTES protein levels were measured two days post-infection.

| Compound | anti-inflammatory effects in the rhinovirus infection mediated inflammation model | levels of biomarkers associated with rhinovirus infection (IL-6, IP-10 and RANTES protein levels) (ibuprofen (20 µM) added with a subset of compounds at time of infection, two days post-infection, in a majority of instances) |
| --- | --- | --- |
| O=c1c(O)c(-c2ccccc2)oc2ccccc12 [3-hydroxyflavone] | anti-inflammatory effects | – |
| O=c1c(-c2ccc(O)cc2)coc2cc(O)cc(O)c12 [genistein] | anti-inflammatory effects | – |
| O=c1c(O)c(-c2cc(O)c(O)c(O)c2)oc2cc(O)cc(O)c12 [Myricetin] | anti-inflammatory effects | – |
| O=c1cc(-c2ccccc2)oc2cc(O)ccc12 [7-hydroxyflavone] | anti-inflammatory effects | – |
| O=c1cc(-c2ccc(O)cc2)oc2cc(O)cc(O)c12 [Apigenin] | anti-inflammatory effects | – |
| CC(C)Cc1ccc(C(C)C(=O)O)cc1 (centres unmarked) [ibuprofen] | – | further reduced |
| O=c1c(O)c(-c2ccc(O)cc2)oc2cc(O)cc(O)c12 [kaempferol] | anti-inflammatory effects | – |
| O=C1C[C@@H](c2ccc(O)c(O)c2)Oc2cc(O)cc(O)c21 [eriodictyol] | anti-inflammatory effects | – |
| 3-methylquercetin | anti-inflammatory effects | – |
| O=c1cc(-c2ccc(O)cc2)oc2cc(O)ccc12 [4′,7-dihydroxyflavone] | anti-inflammatory effects | – |
| CC1=C(/C=C/C(C)=C/C=C/C(C)=C/C(=O)O)C(C)(C)CCC1 [all-transretinoic acid] | anti-inflammatory effects | – |
| COc1ccc(-c2cc(=O)c3c(O)cc(O)cc3o2)cc1O [diosmetin] | anti-inflammatory effects | – |
| O=c1c(-c2ccc(O)cc2)coc2cc(O)ccc12 [daidzein] | anti-inflammatory effects | – |
| C[C@@H]1O[C@@H](OC[C@H]2O[C@@H](Oc3c(-c4ccc(OCCO)c(OCCO)c4)oc4cc(OCCO)cc(O)c4c3=O)[C@H](O)[C@@H](O)[C@@H]2O)[C@H](O)[C@H](O)[C@H]1O [troxerutin] | anti-inflammatory effects | – |
| O=C1c2ccc(O)cc2O[C@H](c2ccc(O)c(O)c2)[C@H]1O [fustin] | anti-inflammatory effects | – |
| Cc1cc(C(C)(C)C)c(O)c(C)c1CC1=NCCN1 [oxymetazoline] | anti-inflammatory effects | – |
| O=C1C[C@@H](c2ccc(O)cc2)Oc2cc(O)cc(O)c21 [naringenin] | anti-inflammatory effects | – |
| O=c1cc(-c2ccc(O)c(O)c2)oc2cc(O)cc(O)c12 [luteolin] | anti-inflammatory effects | – |
| O=c1c(O)c(-c2ccc(O)c(O)c2)oc2cc(O)cc(O)c12 [quercetin] | anti-inflammatory effects | – |
| O=c1c(O)c(-c2ccc(O)c(O)c2)oc2cc(O)ccc12 [fisetin] | anti-inflammatory effects | – |
